Test results from US20260274892A1, “MACROCYCLIC BROAD SPECTRUM ANTIBIOTICS” (RQx Pharmaceuticals, Inc., priority 2017, published 2026).

Experiments:
[1] = tested on: Methicillin Resistant Staphylococcus aureus strain USA 200; experiment: Minimum inhibitory concentration (MIC), CLSI broth micro-dilution, S. aureus; format: cell-based; settings: Staphylococcus aureus, MRSA / USA200; Table 6; MRSA USA 200; cation adjusted Mueller Hinton Broth + 0.002% Tween-80; 35° C., 22 hours
Summary of the method: (§1)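 Colonies grown 20 h at 35° C on Trypticase Soy agar (MRSA) or Luria agar (E. coli) were suspended in cation-adjusted Mueller Hinton broth with 0.002% Tween-80. Suspensions were added at OD600 0.0005 to 10-point twofold compound dilutions, then incubated 22 h at 35° C.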

[2] = tested on: Escherichia coli ATCC 25922; experiment: Minimum inhibitory concentration (MIC), CLSI broth micro-dilution, E. coli; format: cell-based; settings: Escherichia coli, ATCC25922, 22 h, Table 6, cation adjusted Mueller Hinton Broth + 0.002% Tween-80, 35° C.
Summary of the method: as §1

SMILES	MIC [1] [µM]	MIC [2] [µM]
Cc1nc(-c2ccc(OC(C)C)cc2)ncc1C(=O)N[C@@H](CCN)C(=O)N(C)[C@@H]1C(=O)N[C@@H](C)C(=O)N[C@H](C(=O)NCC#N)Cc2ccc(OCCN)c(c2)-c2cc1ccc2OCCN (racemic) [Compound 246, rac-(8S,11S,14S)-3,18-bis(2-aminoethoxy)-N-(cyanomethyl)-11-methyl-14-[methyl-[rac-(2S)-4-amino-2-[[2-(4-isopropoxyphenyl)-4-methyl-pyrimidine-5-carbonyl]amino]butanoyl]amino]-10,13-dioxo-9,12-diazatricyclo[13.3.1.12,6]icosa-1(18),2(20),3,5,15(19),16-hexaene-8-carboxamide]	0.067	0.4
CCCCOc1ccc(-c2ncc(C(=O)N[C@@H](CCN)C(=O)N(C)[C@@H]3C(=O)N[C@@H](C)C(=O)N[C@H](C(=O)NCC#N)Cc4ccc(OCCN)c(c4)-c4cc3ccc4OCCN)c(C)n2)cc1Cl (racemic) [Compound 247, rac-(8S,11S,14S)-3,18-bis(2-aminoethoxy)-N-(cyanomethyl)-11-methyl-14-[methyl-[rac-(2S)-4-amino-2-[[2-(4-butoxy-3-chloro-phenyl)-4-methyl-pyrimidine-5-carbonyl]amino]butanoyl]amino]-10,13-dioxo-9,12-diazatricyclo[13.3.1.12,6]icosa-1(18),2(20),3,5,15(19),16-hexaene-8-carboxamide]	0.016	0.19
CCCCCCOc1ccc(-c2ncc(C(=O)N[C@@H](CCN)C(=O)N(C)[C@@H]3C(=O)N[C@@H](C)C(=O)N[C@H](C(=O)NCC#N)Cc4ccc(OCCN)c(c4)-c4cc3ccc4OCCN)c(C)n2)cc1 (racemic) [Compound 248, rac-(8S,11S,14S)-3,18-bis(2-aminoethoxy)-N-(cyanomethyl)-11-methyl-14-[methyl-[rac-(2S)-4-amino-2-[[2-(4-hexoxyphenyl)-4-methyl-pyrimidine-5-carbonyl]amino]butanoyl]amino]-10,13-dioxo-9,12-diazatricyclo[13.3.1.12,6]icosa-1(18),2(20),3,5,15(19),16-hexaene-8-carboxamide]	0.016	0.13
Cc1nc(-c2ccc3c(c2)CCC(C)(C)O3)ncc1C(=O)N[C@@H](CCN)C(=O)N(C)[C@@H]1C(=O)N[C@@H](C)C(=O)N[C@H](C(=O)NCC#N)Cc2ccc(OCCN)c(c2)-c2cc1ccc2OCCN (racemic) [Compound 249, rac-(8S,11S,14S)-3,18-bis(2-aminoethoxy)-N-(cyanomethyl)-11-methyl-14-[methyl-[rac-(2S)-4-amino-2-[[2-(2,2-dimethylchroman-6-yl)-4-methyl-pyrimidine-5-carbonyl]amino]butanoyl]amino]-10,13-dioxo-9,12-diazatricyclo[13.3.1.12,6]icosa-1(18),2(20),3,5,15(19),16-hexaene-8-carboxamide]	0.043	0.35
Cc1nc(-c2ccc(OC(C)(C)C)cc2)ncc1C(=O)N[C@@H](CCN)C(=O)N(C)[C@@H]1C(=O)N[C@@H](C)C(=O)N[C@H](C(=O)NCC#N)Cc2ccc(OCCN)c(c2)-c2cc1ccc2OCCN (racemic) [Compound 250, rac-(8S,11S,14S)-3,18-bis(2-aminoethoxy)-N-(cyanomethyl)-11-methyl-14-[methyl-[rac-(2S)-4-amino-2-[[2-(4-tert-butoxyphenyl)-4-methyl-pyrimidine-5-carbonyl]amino]butanoyl]amino]-10,13-dioxo-9,12-diazatricyclo[13.3.1.12,6]icosa-1(18),2(20),3,5,15(19),16-hexaene-8-carboxamide]	0.066	0.35
